Data reported in ChEMBL document CHEMBL3797052 (Eur J Med Chem, 2016).

Columns and labels:
[1] = system: MCF7; test: Antiproliferative activity against human MCF7 cells assessed as cell growth at 10^-7 M after 48 hrs by sulforhodamine B assay; assay type: functional; conditions: MCF7, 48 h, read-out: Activity
[2] = system: 786-0; test: Antiproliferative activity against human 786-0 cells assessed as cell growth at 10^-6 M after 48 hrs by sulforhodamine B assay; assay type: functional; conditions: 786-0, 48 h, read-out: Activity
[3] = Antiproliferative activity against human RXF393 cells assessed as growth inhibition after 48 hrs by sulforhodamine B assay; assay type: functional; conditions: RXF 393, 48 h; for CC50: read-out: LC50 (the source's name)
[4] = Antiproliferative activity against human SF539 cells assessed as growth inhibition after 48 hrs by sulforhodamine B assay; assay type: functional; conditions: SF-539, 48 h
[5] = system: K562; test: Antiproliferative activity against human K562 cells assessed as cell growth at 10^-7 M after 48 hrs by sulforhodamine B assay; assay type: functional; conditions: K562, 48 h, read-out: Activity
[6] = system: NCI-H226; test: Antiproliferative activity against human NCI-H226 cells assessed as cell growth at 10^-7 M after 48 hrs by sulforhodamine B assay; assay type: functional; conditions: NCI-H226, 48 h, read-out: Activity
[7] = Antiproliferative activity against human OVCAR5 cells assessed as cell growth at 10^-8 M after 48 hrs by sulforhodamine B assay; assay type: functional; conditions: OVCAR-5, 48 h, read-out: Activity
[8] = system: SK-MEL-28; test: Antiproliferative activity against human SK-MEL-28 cells assessed as cell growth at 10^-6 M after 48 hrs by sulforhodamine B assay; assay type: functional; conditions: SK-MEL-28, 48 h, read-out: Activity
[9] = Antiproliferative activity against human NCI-ADR-RES cells assessed as cell growth at 10^-6 M after 48 hrs by sulforhodamine B assay; assay type: functional; conditions: read-out: Activity
[10] = system: 786-0; test: Antiproliferative activity against human 786-0 cells assessed as cell growth at 10^-7 M after 48 hrs by sulforhodamine B assay; assay type: functional; conditions: 786-0, 48 h, read-out: Activity
[11] = system: KM12; test: Antiproliferative activity against human KM12 cells assessed as cell growth at 10^-6 M after 48 hrs by sulforhodamine B assay; assay type: functional; conditions: KM12, 48 h, read-out: Activity
[12] = system: Malme-3M; test: Antiproliferative activity against human MALME-3M cells assessed as cell growth at 10^-6 M after 48 hrs by sulforhodamine B assay; assay type: functional; conditions: read-out: Activity
[13] = Antiproliferative activity against human Hs 578T cells assessed as cell growth at 10^-7 M after 48 hrs by sulforhodamine B assay; assay type: functional; conditions: read-out: Activity
[14] = system: A549; test: Antiproliferative activity against human A549/ATCC cells assessed as growth inhibition after 48 hrs by sulforhodamine B assay; assay type: functional; conditions: A549, 48 h; for CC50: read-out: LC50 (the source's name)
[15] = system: K562; test: Antiproliferative activity against human K562 cells assessed as cell growth at 10^-8 M after 48 hrs by sulforhodamine B assay; assay type: functional; conditions: K562, 48 h, read-out: Activity
[16] = Antiproliferative activity against human OVCAR3 cells assessed as cell growth at 10^-8 M after 48 hrs by sulforhodamine B assay; assay type: functional; conditions: OVCAR-3, 48 h, read-out: Activity
[17] = Antiproliferative activity against human RPMI8226 cells assessed as cell growth at 10^-4 M after 48 hrs by sulforhodamine B assay; assay type: functional; conditions: RPMI-8226, 48 h, read-out: Activity
[18] = Antiproliferative activity against human HCT116 cells assessed as cell growth at 10^-4 M after 48 hrs by sulforhodamine B assay; assay type: functional; conditions: HCT-116, 48 h, read-out: Activity
[19] = system: NCI-H23; test: Antiproliferative activity against human NCI-H23 cells assessed as growth inhibition after 48 hrs by sulforhodamine B assay; assay type: functional; conditions: NCI-H23, 48 h
[20] = Antiproliferative activity against human SF539 cells assessed as cell growth at 10^-8 M after 48 hrs by sulforhodamine B assay; assay type: functional; conditions: SF-539, 48 h, read-out: Activity
[21] = system: NCI-H522; test: Antiproliferative activity against human NCI-H522 cells assessed as cell growth at 10^-7 M after 48 hrs by sulforhodamine B assay; assay type: functional; conditions: NCI-H522, 48 h, read-out: Activity
[22] = Antiproliferative activity against human PC3 cells assessed as cell growth at 10^-4 M after 48 hrs by sulforhodamine B assay; assay type: functional; conditions: PC-3, 48 h, read-out: Activity
[23] = Antiproliferative activity against human Caki1 cells assessed as growth inhibition after 48 hrs by sulforhodamine B assay; assay type: functional; conditions: CAKI-1, 48 h; for CC50: read-out: LC50 (the source's name)
[24] = Antiproliferative activity against human Caki1 cells assessed as cell growth at 10^-8 M after 48 hrs by sulforhodamine B assay; assay type: functional; conditions: CAKI-1, 48 h, read-out: Activity
[25] = system: T47D; test: Antiproliferative activity against human T47D cells assessed as cell growth at 10^-6 M after 48 hrs by sulforhodamine B assay; assay type: functional; conditions: read-out: Activity
[26] = system: MDA-MB-468; test: Antiproliferative activity against human MDA-MB-468 cells assessed as cell growth at 10^-6 M after 48 hrs by sulforhodamine B assay; assay type: functional; conditions: MDA-MB-468, 48 h, read-out: Activity
[27] = Antiproliferative activity against human RPMI8226 cells assessed as cell growth at 10^-6 M after 48 hrs by sulforhodamine B assay; assay type: functional; conditions: RPMI-8226, 48 h, read-out: Activity
[28] = Antiproliferative activity against human UACC257 cells assessed as cell growth at 10^-4 M after 48 hrs by sulforhodamine B assay; assay type: functional; conditions: UACC-257, 48 h, read-out: Activity
[29] = Antiproliferative activity against human IGROV1 cells assessed as cell growth at 10^-6 M after 48 hrs by sulforhodamine B assay; assay type: functional; conditions: IGROV-1, 48 h, read-out: Activity
[30] = Antiproliferative activity against human PC3 cells assessed as cell growth at 10^-6 M after 48 hrs by sulforhodamine B assay; assay type: functional; conditions: PC-3, 48 h, read-out: Activity
[31] = Antiproliferative activity against human SW620 cells assessed as cell growth at 10^-6 M after 48 hrs by sulforhodamine B assay; assay type: functional; conditions: SW-620, 48 h, read-out: Activity
[32] = Antiproliferative activity against human UACC62 cells assessed as cell growth at 10^-4 M after 48 hrs by sulforhodamine B assay; assay type: functional; conditions: UACC-62, 48 h, read-out: Activity
[33] = Antiproliferative activity against human OVCAR5 cells assessed as cell growth at 10^-7 M after 48 hrs by sulforhodamine B assay; assay type: functional; conditions: OVCAR-5, 48 h, read-out: Activity
[34] = Antiproliferative activity against human HOP62 cells assessed as cell growth at 10^-6 M after 48 hrs by sulforhodamine B assay; assay type: functional; conditions: HOP-62, 48 h, read-out: Activity
[35] = target: RAF proto-oncogene serine/threonine-protein kinase (Homo sapiens, UniProt P04049); test: Inhibition of human CRAF at 10 uM measured after 40 mins by scintillation counting
[36] = system: NCI-H23; test: Antiproliferative activity against human NCI-H23 cells assessed as cell growth at 10^-4 M after 48 hrs by sulforhodamine B assay; assay type: functional; conditions: NCI-H23, 48 h, read-out: Activity
[37] = Antiproliferative activity against human MOLT4 cells assessed as growth inhibition after 48 hrs by sulforhodamine B assay; assay type: functional; conditions: MOLT-4, 48 h

Sequence of RAF proto-oncogene serine/threonine-protein kinase (P04049 whole entry): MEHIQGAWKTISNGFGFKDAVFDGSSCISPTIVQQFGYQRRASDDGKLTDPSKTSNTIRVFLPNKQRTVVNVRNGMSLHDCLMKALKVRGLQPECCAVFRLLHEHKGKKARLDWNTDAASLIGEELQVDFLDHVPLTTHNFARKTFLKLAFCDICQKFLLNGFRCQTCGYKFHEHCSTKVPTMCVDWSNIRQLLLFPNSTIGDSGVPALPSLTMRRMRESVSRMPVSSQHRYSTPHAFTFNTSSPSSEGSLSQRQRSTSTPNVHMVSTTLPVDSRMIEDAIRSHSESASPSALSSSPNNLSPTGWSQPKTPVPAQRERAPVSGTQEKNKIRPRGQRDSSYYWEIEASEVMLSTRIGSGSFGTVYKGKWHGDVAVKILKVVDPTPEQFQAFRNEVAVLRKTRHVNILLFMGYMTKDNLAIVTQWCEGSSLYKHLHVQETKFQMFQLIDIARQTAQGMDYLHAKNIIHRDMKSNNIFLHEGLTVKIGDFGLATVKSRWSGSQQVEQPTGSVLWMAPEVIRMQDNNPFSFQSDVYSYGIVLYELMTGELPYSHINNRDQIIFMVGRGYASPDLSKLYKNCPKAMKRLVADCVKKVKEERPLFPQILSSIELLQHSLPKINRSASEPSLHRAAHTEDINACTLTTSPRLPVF

CNC(=O)c1cc(Oc2ccc3nc(NC(=O)Nc4cc(C(F)(F)F)cc(C(F)(F)F)c4)sc3c2)ccn1
growth at 0.1 µM [1]: 87% | growth at 1 µM [2]: 75% | GI50 [3]: 1250 nM | TGI [3]: 2990 nM | CC50 [3]: 7160 nM | GI50 [4]: 1240 nM | LC50 [4]: 6330 nM | TGI [4]: 2800 nM | growth at 0.1 µM [5]: 97% | growth at 0.1 µM [6]: 87% | growth at 0.01 µM [7]: 94% | growth at 1 µM [8]: 66% | growth at 1 µM [9]: 63% | growth at 0.1 µM [10]: 99% | growth at 1 µM [11]: 25% | growth at 1 µM [12]: 48% | growth at 0.1 µM [13]: 100% | GI50 [14]: 1300 nM | TGI [14]: 2670 nM | CC50 [14]: 5510 nM | growth at 0.01 µM [15]: 104% | growth at 0.01 µM [16]: 101% | growth at 100 µM [17]: -52% | growth at 100 µM [18]: -95% | GI50 [19]: 573 nM | LC50 [19]: 7990 nM | TGI [19]: 2380 nM | growth at 0.01 µM [20]: 96% | growth at 0.1 µM [21]: 97% | growth at 100 µM [22]: -75% | GI50 [23]: 1150 nM | TGI [23]: 2690 nM | CC50 [23]: 6280 nM | growth at 0.01 µM [24]: 91% | growth at 1 µM [25]: 32% | growth at 1 µM [26]: 22% | growth at 1 µM [27]: 51% | growth at 100 µM [28]: -94% | growth at 1 µM [29]: 62% | growth at 1 µM [30]: 37% | growth at 1 µM [31]: 80% | growth at 100 µM [32]: -73% | growth at 0.1 µM [33]: 98% | growth at 1 µM [34]: 58% | inhibition [35]: 77% | growth at 100 µM [36]: -52%

CNC(=O)c1cc(Oc2ccc3nc(NC(=O)Nc4ccc(Cl)c(C(F)(F)F)c4)sc3c2)ccn1
growth at 0.1 µM [1]: 89% | growth at 1 µM [2]: 95% | GI50 [3]: 1930 nM | TGI [3]: 4570 nM | CC50 [3]: 13900 nM | GI50 [4]: 1780 nM | TGI [4]: 3900 nM | growth at 0.1 µM [5]: 104% | growth at 0.1 µM [6]: 99% | growth at 0.01 µM [7]: 90% | growth at 1 µM [8]: 78% | growth at 1 µM [9]: 94% | growth at 0.1 µM [10]: 101% | LC50 [37]: > 100000 nM | TGI [37]: > 100000 nM | growth at 1 µM [11]: 85% | growth at 1 µM [12]: 79% | growth at 0.1 µM [13]: 89% | GI50 [14]: 1930 nM | CC50 [14]: > 100000 nM | growth at 0.01 µM [15]: 107% | growth at 0.01 µM [16]: 109% | growth at 100 µM [17]: 46% | growth at 100 µM [18]: -19% | GI50 [19]: 2480 nM | LC50 [19]: > 100000 nM | TGI [19]: 8170 nM | growth at 0.01 µM [20]: 97% | growth at 0.1 µM [21]: 95% | growth at 100 µM [22]: 7% | GI50 [23]: 2540 nM | CC50 [23]: > 100000 nM | growth at 0.01 µM [24]: 87% | growth at 1 µM [25]: 43% | growth at 1 µM [26]: 64% | growth at 1 µM [27]: 82% | growth at 100 µM [28]: 30% | growth at 1 µM [29]: 88% | growth at 1 µM [30]: 71% | growth at 1 µM [31]: 91% | growth at 100 µM [32]: 26% | growth at 0.1 µM [33]: 95% | growth at 1 µM [34]: 87% | inhibition [35]: 94.8% | growth at 100 µM [36]: -40%
